Laboratory results: paper PMC6906394, “Radiomodifying action, Pharmacokinetic and Biodistribution of Ethyl 3, 4, 5-trihydroxybenzoate-Implication in development of radiomitigator” (Scientific Reports, 2019)
“Also recorded” adds a separate entry of the source.

Experiments:
[1] = tested on: whole body 60Co-gamma irradiated mice; assay: Liver and kidney function markers SGOT, SGPT, urea and creatinine after irradiation; format: in vivo
Experimental: (§1) Black C57BL/6 male mice weighing 28–30 g were maintained at the Institutional Animal Experimental Facility. Animals were fed according to standard chow diet having free access to food and water ad libitum. The environmental condition was maintained at room temperature (22 ± 2 °C), relative humidity (45–60%) and 12 h dark/light cycle controlled facility. In this study, mice were randomly assigned to four different groups (n = 21) i.e untreated control (UC), GAE-treated (GAE), Radiation + GAE (R + GAE), Radiation group (R). Mice fasted overnight with free access to water before being dosed. Isolated GAE from leaves was dissolved with distilled water and ethanol in (7:3 v/v) and administered orally at a dose of 200 mg/kg body weight to GAE-treated and R + GAE treated groups only. The experiment was carried out in accordance to regulation and guideline of the, Committee for the purpose of control and supervision of Experiments on animals (CPCSEA), and study was approved by Institutional Animal Experimental Committee (IAEC), Institute of Nuclear Medicine & Allied Science, Delhi, India.
Group I untreated control (UC), Group II GAE-treated (GAE), Group III Radiation + GAE (R + GAE) and Group IV Radiation (R) exposed. The GAE was administered orally 15 min post irradiation. The whole-body radiation (5 Gy) was carried out using Bhabahtron II, Telecobalt machine, Panacea medical technology, Bangalore. The mice exposed at a dose rate of 0.961 Gy/min at field 35 × 35 cm^2 and the distance maintained from the source was 80 cm.
SGOT and SGPT are a biomarker of liver function test used to assess liver function and its damage; whereas, urea and creatinine were used to investigate kidney function and its damage. These biomarkers were analyzed in-vitro by the use of commercially available kits of agape, Kerala, India. The assay were performed according to standard procedure mention in the kit protocol. In-vitro SGOT quantitative determination were based on the reaction of L-aspartate with alpha-ketoglutarate. According to the manufacturer protocol reagent were mix and incubated for 1 minute at 37 °C. The changes in absorbance were recorded per minute during 3 minutes. In-vitro kinetic determination of SGPT were based on the reaction of L-alanine with alpha-ketoglutarate. The reagent were mixed and incubated for 1 minute at 37 °C. the changes in absorbance was recorded per minute during 3 minutes at 340 nm. Urea is in-vitro quantitative determine by the method of Talke et al., 1965. Creatinine were in-vitro determined by kits and it can be measured by quionone pigment photometrically. Reagent were mixed and incubated for 5 minute at 37 °C. the sample absorbance and the standard against the reagent blank were measured at 546 nm.

NF-kB = assay: Immunofluorescent staining of NF-kB expression in liver and kidney sections; format: in vivo, mice; details: R + GAE group, compared to irradiated group
Experimental: as §1
Group I untreated control (UC), Group II GAE-treated (GAE), Group III Radiation + GAE (R + GAE) and Group IV Radiation (R) exposed. The GAE was administered orally 15 min post irradiation. […]

[2] = Stability of GAE in mice plasma and liver homogenate (QC samples); format: in vitro ADME; details: for Stability % Long term: 2 week of storage at −20 °C; for freeze-thaw stability (fraction remaining) at 50 ng/mL / freeze-thaw stability (fraction remaining) at 250 ng/mL / freeze-thaw stability (fraction remaining) at 500 ng/mL: mouse, three consecutive freeze thaw cycles (−20 °C to room temperature)
Experimental: The recovery of GAE at three concentration was 79.3, 89.6 and 99.2% in plasma. […] The analyte were also shown to be stable in the plasma at room temperature for atleast 8 h with a reduction of less than 12–15% (Table 1). Based on the result reliable, reproducible and robust method has been developed and validated.
Standard stock solutions of GAE at 1 mg/mL were prepared and dissolved in appropriate amounts of diluent stock, water, and methanol (8:2 v/v). GAE was adequately diluted with diluent stock to give an intermediate solution at 100 µg/mL for each analyte. GAE calibration standards were at concentration of 5, 10, 20, 30, 40, 50, 100, 250, 500 ng/mL. Internal standard propyl gallate (PG) were prepared to spiked aliquots of blank mouse plasma (200 µL). […] combined spiking solution at a final concentration of 5, 10, 20, 40, 50, 100, 250, 500 and 1000 ng/mL were prepared and used to spike aliquots of blank tissue homogenates of Liver, kidney, heart, brain, and spleen (400 µL). The entire sample was stored at 4 °C. Quality control samples were prepared independently in the same biological matrices (plasma and tissue homogenate of liver) stored at −20 °C until use with each analytical run. Intra-day and inter-day precision were assessed by using six replicate QC samples at three levels of GAE included in each run to determine the accuracy and precision. […] The inter-day accuracy and precision were assessed by analyzing three batches on different days. The recoveries of GAE from plasma and tissue (liver) homogenate samples were done at three QC levels. The recovery of the analyte was calculated by comparing the analyte peaks of extracted QC samples against the equivalent aqueous solution.
The QC samples were kept at room temperature for 6 h and a freeze-thaw cycle (−80 °C) was repeated for three times. […] For all storage conditions, replication of three concentrations was analyzed after the operation and the experimental result was obtained through a chromatographic area and compared with the nominal values. On the basis of previous studies reported on pharmacokinetic and biodistribution[22],[23], we standardized and validated our study to further investigate the radiomodifying action of GAE.

[3] = R + GAE group (5 Gy, GAE 200 mg/kg oral 15 min post irradiation), 8 h
[4] = R + GAE group (5 Gy, GAE 200 mg/kg oral 15 min post irradiation), 24 h

reduction after freeze-thaw cycle ([2]; freeze-thaw cycle): less than 8%
Stability % Long term ([2]; liver, 50 ng/mL): 62.6 ± 24.5%
Stability % Short term ([2]; liver, 50 ng/mL, room temperature for 24 h): 66.9 ± 22.18%
Stability % Long term ([2]; liver, 250 ng/mL): 79.26 ± 6.06%
Stability % Short term ([2]; liver, 250 ng/mL, room temperature for 24 h): 86.8 ± 1.7%
Stability % Long term ([2]; liver, 500 ng/mL): 95.13 ± 7.6%
Stability % Short term ([2]; liver, 500 ng/mL, room temperature for 24 h): 99.9 ± 0.47%
freeze-thaw stability (fraction remaining) at 50 ng/mL ([2]; liver homogenate, liver, 50 ng/mL): 0.648 ± 0.049
freeze-thaw stability (fraction remaining) at 250 ng/mL ([2]; liver homogenate, liver, 250 ng/mL): 0.842 ± 0.025
freeze-thaw stability (fraction remaining) at 500 ng/mL ([2]; liver homogenate, liver, 500 ng/mL): 0.978 ± 0.049
freeze-thaw stability (fraction remaining) at 50 ng/mL ([2]; plasma, 50 ng/mL): 0.79 ± 0.0225
freeze-thaw stability (fraction remaining) at 250 ng/mL ([2]; plasma, 250 ng/mL): 0.901 ± 0.0093
freeze-thaw stability (fraction remaining) at 500 ng/mL ([2]; plasma, 500 ng/mL): 0.9342 ± 0.0037
Stability % Long term ([2]; plasma, 50 ng/mL): 70.32 ± 1.37%
Stability % Short term ([2]; plasma, 50 ng/mL, room temperature for 24 h): 79.35 ± 1.37%
Stability % Long term ([2]; plasma, 250 ng/mL): 87.55 ± 0.635%
Stability % Short term ([2]; plasma, 250 ng/mL, room temperature for 24 h): 89.67 ± 1.58%
Stability % Long term ([2]; plasma, 500 ng/mL): 92.01 ± 0.179%
Stability % Short term ([2]; plasma, 500 ng/mL, room temperature for 24 h): 99.25 ± 0.120%
reduction in plasma at room temperature ([2]; plasma, room temperature for at least 8 h): 12–15%
stability at room temperature ([2]; room temperature for 24 h, plasma and tissue samples): stable
stability at −20 °C ([2]; −20 °C for one month): stable
SMILES: CCOC(=O)c1cc(O)c(O)c(O)c1 [GAE, Ethyl 3,4,5-trihydroxybenzoate]
change of SGOT, SGPT, urea and creatinine in serum compared to irradiated animals not receiving GAE ([1]; GAE 200 mg/kg b.wt oral 15 min post 5 Gy irradiation, P < 0.05): significant reduction
SGOT level [1, 3]: 24.10 ± 2.4 U/L
SGPT level [1, 3]: 36.01 ± 6.1 U/L
urea level [1, 3]: 18.16 ± 0.003 mg/dL
SGOT level [1, 4]: 63.11 ± 6.16 U/L
SGPT level [1, 4]: 62.15 ± 8.63 U/L
creatinine level ([1]; R + GAE group (5 Gy, GAE 200 mg/kg oral 15 min post irradiation), upto 8 h): 1.05 ± 0.04 mg/dL
duration of radiomodifying action ([1]; post irradiation (5 Gy), liver and kidney function biomarkers, efficacy reduced at 24 h): ≤ 8 h
NF-kB positive fluorescence expression (NF-kB): not strong; also recorded: not positive
